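Dose response: 5 concentrations. Exposure: 48 h. Format: 96-well plates. Endpoint: linear interpolation; highest concentration if not reached. Definition used: TGI = concentration required for complete inhibition of growth.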
Assays:
Test in all cases: NCI-60 cell line screen, 48 h
SW-620 colon = system: SW-620 colon
MALME-3M melanoma = system: MALME-3M melanoma
HOP-62 NSCLC = system: HOP-62 NSCLC
NCI-H460 lung = system: NCI-H460 lung
RPMI-8226 leukemia = system: RPMI-8226 leukemia
U251 CNS = system: U251 CNS
TK-10 renal = system: TK-10 renal
EKVX NSCLC = system: EKVX NSCLC
MOLT-4 leukemia = system: MOLT-4 leukemia
LOX IMVI melanoma = system: LOX IMVI melanoma
SN12C renal = system: SN12C renal
KM20L2 colon = system: KM20L2 colon
CAKI-1 renal = system: CAKI-1 renal
HL-60(TB) leukemia = system: HL-60(TB) leukemia
CCRF-CEM leukemia = system: CCRF-CEM leukemia
OVCAR-3 ovarian = system: OVCAR-3 ovarian
UACC-62 melanoma = system: UACC-62 melanoma
HOP-92 NSCLC = system: HOP-92 NSCLC
SK-MEL-28 melanoma = system: SK-MEL-28 melanoma
KM12 colon = system: KM12 colon
A549 NSCLC = system: A549 NSCLC
HT29 colon = system: HT29 colon
SF-539 CNS = system: SF-539 CNS
SK-MEL-2 melanoma = system: SK-MEL-2 melanoma
LXFL 529 NSCLC = system: LXFL 529 NSCLC
SK-OV-3 ovarian = system: SK-OV-3 ovarian
DLD-1 colon = system: DLD-1 colon
UO-31 renal = system: UO-31 renal
OVCAR-8 ovarian = system: OVCAR-8 ovarian
M14 melanoma = system: M14 melanoma
COLO 205 colon = system: COLO 205 colon
ACHN renal = system: ACHN renal
SNB-75 CNS = system: SNB-75 CNS
SK-MEL-5 melanoma = system: SK-MEL-5 melanoma
SNB-78 CNS = system: SNB-78 CNS
NCI-H23 lung = system: NCI-H23 lung
HCT-116 colon = system: HCT-116 colon
RXF 393 renal = system: RXF 393 renal
HCC-2998 colon = system: HCC-2998 colon
HCT-15 colon = system: HCT-15 colon
UACC-257 melanoma = system: UACC-257 melanoma
786-0 renal = system: 786-0 renal
SF-295 CNS = system: SF-295 CNS
OVCAR-5 ovarian = system: OVCAR-5 ovarian
A498 renal = system: A498 renal
SNB-19 CNS = system: SNB-19 CNS
NCI-H226 lung = system: NCI-H226 lung
K-562 leukemia = system: K-562 leukemia
IGROV1 ovarian = system: IGROV1 ovarian
HOP-18 NSCLC = system: HOP-18 NSCLC
NCI-H522 lung = system: NCI-H522 lung
M19-MEL melanoma = system: M19-MEL melanoma
SF-268 CNS = system: SF-268 CNS
SR leukemia = system: SR leukemia

How did the TGI (SW-620 colon) turn out when COC(=O)CC(CC(=O)C(=O)OC)C(=O)OC (stereo not drawn) was run?
Its TGI is greater than 100 µM.

And the TGI (MALME-3M melanoma)?
Its TGI is greater than 100 µM.

What about the TGI (HOP-62 NSCLC) of the same molecule?
Its TGI is greater than 100 µM.

And the TGI (NCI-H460 lung)?
The TGI was greater than 100 µM.

And the TGI (RPMI-8226 leukemia)?
The TGI was greater than 100 µM.

And the TGI (U251 CNS)?
The TGI was greater than 100 µM.

And the TGI (TK-10 renal)?
Its TGI is greater than 100 µM.

What about the TGI (EKVX NSCLC) of the same molecule?
The TGI was greater than 100 µM.

And the TGI (MOLT-4 leukemia)?
Its TGI is greater than 100 µM.

And the TGI (LOX IMVI melanoma)?
The TGI was greater than 100 µM.

And the TGI (SN12C renal)?
The TGI was greater than 100 µM.

And the TGI (KM20L2 colon)?
Its TGI is greater than 100 µM.

And the TGI (CAKI-1 renal)?
The TGI was greater than 100 µM.

What about the TGI (HL-60(TB) leukemia) of the same molecule?
The TGI was greater than 100 µM.

And the TGI (CCRF-CEM leukemia)?
The TGI was greater than 100 µM.

And the TGI (OVCAR-3 ovarian)?
Its TGI is greater than 100 µM.

And the TGI (UACC-62 melanoma)?
The TGI was greater than 100 µM.

And the TGI (HOP-92 NSCLC)?
The TGI was greater than 100 µM.

And the TGI (SK-MEL-28 melanoma)?
The TGI was greater than 100 µM.

What about the TGI (KM12 colon) of the same molecule?
The TGI was greater than 100 µM.

And the TGI (A549 NSCLC)?
Its TGI is greater than 100 µM.

What about the TGI (HT29 colon) of the same molecule?
The TGI was greater than 100 µM.

What about the TGI (SF-539 CNS) of the same molecule?
The TGI was greater than 100 µM.

And the TGI (SK-MEL-2 melanoma)?
The TGI was greater than 100 µM.

And the TGI (LXFL 529 NSCLC)?
The TGI was greater than 100 µM.

And the TGI (SK-OV-3 ovarian)?
The TGI was greater than 100 µM.

What about the TGI (DLD-1 colon) of the same molecule?
The TGI was greater than 100 µM.

And the TGI (UO-31 renal)?
Its TGI is greater than 100 µM.

What about the TGI (OVCAR-8 ovarian) of the same molecule?
Its TGI is greater than 100 µM.

And the TGI (M14 melanoma)?
The TGI was greater than 100 µM.

What about the TGI (COLO 205 colon) of the same molecule?
Its TGI is greater than 100 µM.

What about the TGI (ACHN renal) of the same molecule?
Its TGI is greater than 100 µM.

And the TGI (SNB-75 CNS)?
The TGI was greater than 100 µM.

What about the TGI (SK-MEL-5 melanoma) of the same molecule?
Its TGI is greater than 100 µM.

And the TGI (SNB-78 CNS)?
Its TGI is greater than 100 µM.

What about the TGI (NCI-H23 lung) of the same molecule?
The TGI was greater than 100 µM.

And the TGI (HCT-116 colon)?
Its TGI is greater than 100 µM.

And the TGI (RXF 393 renal)?
Its TGI is greater than 100 µM.

And the TGI (HCC-2998 colon)?
The TGI was greater than 100 µM.

What about the TGI (HCT-15 colon) of the same molecule?
The TGI was greater than 100 µM.

And the TGI (UACC-257 melanoma)?
The TGI was greater than 100 µM.

What about the TGI (786-0 renal) of the same molecule?
The TGI was greater than 100 µM.

What about the TGI (SF-295 CNS) of the same molecule?
The TGI was greater than 100 µM.

And the TGI (OVCAR-5 ovarian)?
The TGI was greater than 100 µM.

What about the TGI (A498 renal) of the same molecule?
Its TGI is greater than 100 µM.

What about the TGI (SNB-19 CNS) of the same molecule?
The TGI was greater than 100 µM.

And the TGI (NCI-H226 lung)?
Its TGI is greater than 100 µM.

What about the TGI (K-562 leukemia) of the same molecule?
Its TGI is greater than 100 µM.

And the TGI (IGROV1 ovarian)?
Its TGI is greater than 100 µM.

For O=[N+]([O-])c1ccc(N=Nc2c(O)[nH]c3ccc(Br)cc23)c([N+](=O)[O-])c1, which TGI (SW-620 colon) is on record?
The TGI was 11.7 µM.

And the TGI (MALME-3M melanoma)?
Its TGI is 15 µM.

What about the TGI (HOP-62 NSCLC) of the same molecule?
The TGI was 21 µM.

And the TGI (HOP-18 NSCLC)?
The TGI was 4.69 µM.

What about the TGI (RPMI-8226 leukemia) of the same molecule?
The TGI was 9.84 µM.

What about the TGI (U251 CNS) of the same molecule?
The TGI was 16.3 µM.

What about the TGI (TK-10 renal) of the same molecule?
Its TGI is 37.8 µM.

And the TGI (EKVX NSCLC)?
Its TGI is 33.7 µM.

What about the TGI (MOLT-4 leukemia) of the same molecule?
Its TGI is 26.2 µM.

And the TGI (LOX IMVI melanoma)?
The TGI was 3.17 µM.

And the TGI (SN12C renal)?
The TGI was 11.4 µM.

What about the TGI (KM20L2 colon) of the same molecule?
Its TGI is 13.4 µM.

And the TGI (CAKI-1 renal)?
Its TGI is 27.2 µM.

What about the TGI (HL-60(TB) leukemia) of the same molecule?
The TGI was 4.77 µM.

What about the TGI (CCRF-CEM leukemia) of the same molecule?
The TGI was 9.3 µM.

What about the TGI (OVCAR-3 ovarian) of the same molecule?
Its TGI is 19.3 µM.

What about the TGI (UACC-62 melanoma) of the same molecule?
The TGI was 16.2 µM.

And the TGI (NCI-H522 lung)?
The TGI was 8.35 µM.

What about the TGI (M19-MEL melanoma) of the same molecule?
Its TGI is 9.91 µM.

And the TGI (HOP-92 NSCLC)?
The TGI was 5.1 µM.

What about the TGI (SK-MEL-28 melanoma) of the same molecule?
The TGI was 10.3 µM.

What about the TGI (KM12 colon) of the same molecule?
The TGI was 79.6 µM.

And the TGI (A549 NSCLC)?
The TGI was 20.4 µM.

And the TGI (HT29 colon)?
The TGI was greater than 100 µM.

What about the TGI (SK-MEL-2 melanoma) of the same molecule?
Its TGI is 8.04 µM.

And the TGI (LXFL 529 NSCLC)?
The TGI was 13.9 µM.

And the TGI (SK-OV-3 ovarian)?
The TGI was 34.7 µM.

What about the TGI (SF-268 CNS) of the same molecule?
The TGI was 16.6 µM.

What about the TGI (DLD-1 colon) of the same molecule?
The TGI was 20.4 µM.

And the TGI (UO-31 renal)?
The TGI was 7.14 µM.

And the TGI (OVCAR-8 ovarian)?
Its TGI is 18.9 µM.

What about the TGI (M14 melanoma) of the same molecule?
The TGI was 21.2 µM.

And the TGI (COLO 205 colon)?
The TGI was 5.92 µM.

What about the TGI (ACHN renal) of the same molecule?
Its TGI is 9.44 µM.

What about the TGI (SNB-75 CNS) of the same molecule?
Its TGI is 11.5 µM.

What about the TGI (SK-MEL-5 melanoma) of the same molecule?
Its TGI is 3.49 µM.

What about the TGI (SNB-78 CNS) of the same molecule?
Its TGI is greater than 100 µM.

And the TGI (SR leukemia)?
Its TGI is 10.5 µM.

And the TGI (NCI-H23 lung)?
The TGI was 8.28 µM.

And the TGI (HCT-116 colon)?
The TGI was 3.09 µM.

And the TGI (RXF 393 renal)?
The TGI was 15.3 µM.

What about the TGI (HCC-2998 colon) of the same molecule?
Its TGI is 23.4 µM.

What about the TGI (HCT-15 colon) of the same molecule?
The TGI was 11.6 µM.

And the TGI (UACC-257 melanoma)?
Its TGI is 15.6 µM.

And the TGI (786-0 renal)?
The TGI was 13.2 µM.

What about the TGI (SF-295 CNS) of the same molecule?
The TGI was 14.8 µM.

And the TGI (SNB-19 CNS)?
The TGI was 17.1 µM.

And the TGI (K-562 leukemia)?
Its TGI is 15.5 µM.

And the TGI (IGROV1 ovarian)?
The TGI was 45.7 µM.

Reference: PubChem BioAssay (NCI)
